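In this assay, cells in 96-well plates receive the compound at five concentrations for 48 hours. Endpoints are linearly interpolated between the surrounding concentrations. Abbreviation: GI50, concentration required for 50% inhibition of growth.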 Active and inactive are the calls of the source. Cut-off read from the data, not from the text of the source: active = GI50 up to about 1.1 µM and inactive = higher.
Tests used:
Experiment in all cases: growth of human tumour cells (NCI), 48 h
HOP-62 = test system: HOP-62
MDA-N = test system: MDA-N
HCT-15 = test system: HCT-15
PC-3 = test system: PC-3
DU-145 = test system: DU-145
EKVX = test system: EKVX
RXF 393 = test system: RXF 393
OVCAR-3 = test system: OVCAR-3
SNB-75 = test system: SNB-75
OVCAR-4 = test system: OVCAR-4
SF-295 = test system: SF-295
SW-620 = test system: SW-620
NCI/ADR-RES = test system: NCI/ADR-RES
HOP-92 = test system: HOP-92
ACHN = test system: ACHN
OVCAR-8 = test system: OVCAR-8
M14 = test system: M14
NCI-H23 = test system: NCI-H23
UACC-62 = test system: UACC-62
CAKI-1 = test system: CAKI-1

SMILES	GI50 (HOP-62)	GI50 (MDA-N)	GI50 (HCT-15)	GI50 (PC-3)	GI50 (DU-145)	GI50 (EKVX)	GI50 (RXF 393)	GI50 (OVCAR-3)	GI50 (SNB-75)	GI50 (OVCAR-4)	GI50 (SF-295)	GI50 (SW-620)	GI50 (NCI/ADR-RES)	GI50 (HOP-92)	GI50 (ACHN)	GI50 (OVCAR-8)	GI50 (M14)	GI50 (NCI-H23)	GI50 (UACC-62)	GI50 (CAKI-1)
CC(=O)Nc1ccc(Nc2cc(O)nc(O)n2)cc1	> 100 µM (inactive)	> 100 µM (inactive)	> 100 µM	> 100 µM (inactive)	> 100 µM (inactive)	> 100 µM (inactive)	> 100 µM (inactive)	> 100 µM (inactive)	> 100 µM (inactive)	> 100 µM (inactive)	> 100 µM (inactive)	> 100 µM (inactive)	> 100 µM (inactive)	> 100 µM (inactive)	> 100 µM (inactive)	> 100 µM (inactive)	> 100 µM (inactive)			
CC(C)OC(=O)NNc1cccc(Cl)c1	> 100 µM (inactive)	> 100 µM (inactive)	> 100 µM	> 100 µM (inactive)	> 100 µM (inactive)	> 100 µM (inactive)	> 100 µM (inactive)	> 100 µM (inactive)	> 100 µM (inactive)		> 100 µM (inactive)	> 100 µM (inactive)	> 100 µM (inactive)	> 100 µM (inactive)	> 100 µM (inactive)	> 100 µM (inactive)	> 100 µM (inactive)	> 100 µM (inactive)	38.4 µM (inactive)	61.7 µM (inactive)
N#Cc1nc(-c2ccc(-c3nc(C#N)c(N)o3)cc2)oc1N	> 10 µM (inactive)	> 10 µM (inactive)	> 10 µM	> 10 µM (inactive)	> 10 µM (inactive)	> 10 µM (inactive)	> 10 µM (inactive)		> 10 µM (inactive)	> 10 µM (inactive)	> 10 µM (inactive)	> 10 µM (inactive)	> 10 µM (inactive)	> 10 µM (inactive)	> 10 µM (inactive)	> 10 µM (inactive)	> 10 µM (inactive)	> 10 µM (inactive)	> 10 µM (inactive)	> 10 µM (inactive)
COc1ccc([C@H]2C=C(c3cc(F)c(Cl)cc3Cl)N=c3s/c(=C\c4ccc(-c5ccc(Cl)cc5Cl)o4)c(=O)n32)cc1	18.8 µM (inactive)	28.1 µM (inactive)	33.8 µM	99.3 µM (inactive)	71 µM (inactive)		39.6 µM (inactive)		38.4 µM (inactive)	37.3 µM (inactive)	43.2 µM (inactive)	51.1 µM (inactive)	44.5 µM (inactive)	31.6 µM (inactive)	> 100 µM (inactive)	37.8 µM (inactive)	55.3 µM (inactive)	38.9 µM (inactive)	25.5 µM (inactive)	80.5 µM (inactive)
O=c1[nH]c2c(c(=O)[nH]1)SC(c1ccccc1)C2 (stereo unspecified)	> 100 µM (inactive)	> 100 µM (inactive)	> 100 µM	> 100 µM (inactive)	> 100 µM (inactive)	72.1 µM (inactive)	> 100 µM (inactive)	> 100 µM (inactive)	86.9 µM (inactive)	> 100 µM (inactive)	> 100 µM (inactive)	> 100 µM (inactive)	> 100 µM (inactive)	> 100 µM (inactive)	> 100 µM (inactive)	> 100 µM (inactive)	> 100 µM (inactive)	> 100 µM (inactive)		> 100 µM (inactive)
NC(Cn1ccc(=O)c(O)c1)C(=O)O (stereo unspecified) [MIMOSINE]	> 100 µM (inactive)	> 100 µM (inactive)	> 100 µM	> 100 µM (inactive)	> 100 µM (inactive)	> 100 µM (inactive)	> 100 µM (inactive)	> 100 µM (inactive)		> 100 µM (inactive)	> 100 µM (inactive)	> 100 µM (inactive)	> 100 µM (inactive)	> 100 µM (inactive)	> 100 µM (inactive)	> 100 µM (inactive)	> 100 µM (inactive)	> 100 µM (inactive)	> 100 µM (inactive)	> 100 µM (inactive)

— ChEMBL document CHEMBL1201862, “PubChem BioAssay data set” (2004)
